Patent publication US5208227A, “Method, compositions, and compounds for modulating brain excitability” (priority 1991, dated 1993)
Where two headings read alike, the source gives them in different places.

Tests used:
[1] = system: GABA/benzodiazepine receptor-chloride ionopore complex (GBR complex); test: modulation (inhibition) of [35S]TBPS binding; design: species or system rat (male Sprague-Dawley); MAXIMAL INHIBITION: unit not given here; conditions: for MAXIMAL INHIBITION: [35S]TBPS binding; for MAXIMAL INHIBITION / CONTROL IC50 / IC50 / +5 μM GABA IC50: rat cerebral cortex; for CONTROL IC50 / IC50 / +5 μM GABA IC50: inhibition of 2 nM [35S]TBPS binding
Procedure: These procedures were performed as follows:
In these FIGS, (.circle.) represents control without bicuculline; represents 0.5 micromolar bicuculline; (.quadrature.) represents 1.0 micromolar bicuculline; represents 2.0 micromolar bicuculline; and (Δ) represents 3.0 micromolar bicuculline.

progesterone receptor = target: T1, progesterone receptor (Rattus norvegicus, UniProt Q63449); test: [3H]R5020 binding to the progesterone receptor in rat uterus; conditions: FIG. 5
T1 sequence (Q63449 1-923): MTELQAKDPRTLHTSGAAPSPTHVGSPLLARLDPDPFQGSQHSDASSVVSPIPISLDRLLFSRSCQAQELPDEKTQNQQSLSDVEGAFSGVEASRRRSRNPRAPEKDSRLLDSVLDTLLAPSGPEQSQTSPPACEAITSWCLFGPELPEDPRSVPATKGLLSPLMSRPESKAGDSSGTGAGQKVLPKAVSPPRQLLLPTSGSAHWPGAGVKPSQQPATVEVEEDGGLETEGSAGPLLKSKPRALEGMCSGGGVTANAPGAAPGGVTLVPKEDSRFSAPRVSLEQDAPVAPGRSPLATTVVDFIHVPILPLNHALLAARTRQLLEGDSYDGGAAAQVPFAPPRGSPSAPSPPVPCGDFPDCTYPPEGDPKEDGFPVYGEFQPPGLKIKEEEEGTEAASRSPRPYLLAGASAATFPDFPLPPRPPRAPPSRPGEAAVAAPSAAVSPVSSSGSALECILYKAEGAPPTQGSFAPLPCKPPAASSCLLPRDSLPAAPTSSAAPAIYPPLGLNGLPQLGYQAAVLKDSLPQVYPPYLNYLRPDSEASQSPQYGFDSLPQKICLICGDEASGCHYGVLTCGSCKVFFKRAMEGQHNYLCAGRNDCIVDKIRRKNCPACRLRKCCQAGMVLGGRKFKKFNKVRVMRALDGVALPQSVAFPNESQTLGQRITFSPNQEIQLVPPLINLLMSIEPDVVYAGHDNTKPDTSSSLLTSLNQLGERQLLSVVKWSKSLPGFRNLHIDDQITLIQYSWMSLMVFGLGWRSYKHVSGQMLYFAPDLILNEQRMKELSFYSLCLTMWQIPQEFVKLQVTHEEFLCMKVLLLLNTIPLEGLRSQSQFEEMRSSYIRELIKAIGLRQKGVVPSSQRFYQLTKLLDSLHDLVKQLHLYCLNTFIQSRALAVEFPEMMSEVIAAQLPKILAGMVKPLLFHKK
Description: The data plotted in FIG. 5 were obtained by performing assays in accordance with the procedures outlined above to determine the effect of progesterone metabolites and the progestin R5020 on the binding of [^3 H]R5020 to the progesterone receptor in rat uterus. All points on the plot of FIG. 5 represent the mean of triplicate determinations. The following compounds are those listed in FIG. 5: 5-alpha-pregnan-3-alpha-ol-20-one (DHP), 5-alpha-pregnan-3-alpha,21-diol-20-one (Th-DOC), and 5-beta-pregnane-3-alpha,20 diol (5 BETA).

[2] = system: (+)bicuculline-induced seizures in mice; design: key: NP: no protection; conditions: cited from earlier work
[3] = system: picrotoxin-induced convulsions in mice; design: key: NP: no protection; conditions: cited from earlier work
[4] = system: metrazol-induced convulsions in mice; design: key: NP: no protection; conditions: cited from earlier work
mice [5] = system: mice; design: unit not given beside the values; conditions: literature data; cited from earlier work
[6] = system: maximal electroshock (tonic component) in mice; design: unit not given here; conditions: literature data; cited from earlier work
mice [7] = conditions: literature data; cited from earlier work
[8] = system: strychnine-induced convulsions in mice; design: key to STR (strychnine) ED50: NP: no protection; conditions: cited from earlier work
[9] = system: GBR complex ([35S]TBPS site); test: dissociation kinetics of [35S]TBPS in cortical P2 homogenates; type: binding, rat
Procedure: An assay was performed to determine the effect of pentobarbital on the dissociation kinetics of [^35 S]TBPS in rat cerebral cortical membranes. This assay was performed in accordance with the procedures outlined above. […] Dissociation of bound [^35 S]TBPS was initiated by 2 micromolar TBPS in all cases.

[10] = system: premenstrual syndrome (PMS), PND, catamenial epilepsy patients; conditions: cited from earlier work
[11] = read-out: +5 μM GABA IC50, +5 μM GABA
[12] = no added GABA (control), read-out: CONTROL IC50
[13] = chemical convulsant administered i.v., Worms et al.

## C[C@]12C[C@H](O)[C@H]3[C@@H](CCC4=CC(=O)CC[C@@]43C)[C@@H]1CC[C@@H]2C(=O)CO [4-PREGNEN-11β,21- DIOL-3,20-DIONE]
[1]
  MAXIMAL INHIBITION: 21
[1]; no added GABA (control)
  CONTROL IC50: INACTIVE
[1]; [11]
  IC50: > 100 µM

## CC(=O)[C@H]1CC[C@H]2[C@@H]3CC=C4C[C@@H](O)CC[C@]4(C)[C@H]3CC[C@]12C [5-PREGNAN-3β-OL- 20-ONE (PREGNENOLONE), 5-PREGNAN-3β-OL- 20-ONE]
[1]
  MAXIMAL INHIBITION: 30
[1]; no added GABA (control)
  CONTROL IC50: INACTIVE
[1]; [11]
  IC50: > 100 µM

## C[C@]12CC[C@@H](O)C[C@@H]1CC[C@@H]1[C@@H]2CC[C@]2(C)[C@@H](C(=O)CO)CC[C@@H]12 [5-alpha-pregnan-3-alpha,21-diol-20-one]
Progesterone receptor
  affinity for the progesterone receptor: lack of affinity

## CC(O)[C@H]1CC[C@H]2[C@@H]3CC[C@@H]4C[C@H](O)CC[C@]4(C)[C@H]3CC[C@]12C (stereo partly drawn) [5-beta-pregnane-3-alpha,20 diol (5 BETA), 5-beta-pregnane-3-alpha,20 diol]
Progesterone receptor
  affinity for the progesterone receptor: lack of affinity

## C[C@]12CC[C@@H](O)C[C@@H]1CC[C@@H]1[C@@H]2CC[C@]2(C)[C@@H](O)CC[C@@H]12 [5α-ANDROSTAN-3α, 17β-DIOL]
[1]
  MAXIMAL INHIBITION: 100

## C[C@]12CCC(=O)C[C@@H]1CC[C@@H]1[C@@H]2CC[C@]2(C)[C@@H](O)CC[C@@H]12 [5α-ANDROSTAN-17β- OL-3-ONE]
[1]
  MAXIMAL INHIBITION: 52
[1]; [12]
  IC50: > 100 µM

## CC(O)[C@H]1CC[C@H]2[C@@H]3CC[C@H]4C[C@H](O)CC[C@]4(C)[C@H]3CC[C@]12C (stereo partly drawn) [5α-PREGNAN-3α,20- DIOL ([…]), 5α-PREGNAN-3α,20- DIOL]
[1]
  MAXIMAL INHIBITION: 52
[1]; [12]
  IC50: 0.359 µM
[1]; [11]
  IC50: 0.082 µM

## C[C@]12CC[C@@H](O)C[C@@H]1CC[C@H]1[C@@H]3CC[C@H](C(=O)CO)[C@@]3(C)CC(=O)[C@@H]12 [5α-PREGNAN-3α-21- DIOL-11,20-DIONE]
[1]; [12]
  IC50: > 100 µM

## CC(=O)[C@H]1CC[C@H]2[C@@H]3CC[C@H]4C[C@@H](O)CC[C@]4(C)[C@H]3CC[C@]12C [5α-PREGNAN-3β-OL- 20-ONE]
[1]
  MAXIMAL INHIBITION: 33
[1]; no added GABA (control)
  CONTROL IC50: INACTIVE
[1]; [11]
  IC50: > 100 µM

## C[C@]12CC[C@@H]3c4ccc(O)cc4CC[C@H]3[C@@H]1CC[C@@H]2O [17β-ESTRADIOL]
[1]
  MAXIMAL INHIBITION: 0
[1]; +5 μM GABA
  +5 μM GABA IC50: INACTIVE
[1]; no added GABA (control)
  CONTROL IC50: INACTIVE

## CC(C)CCC[C@@H](C)[C@H]1CC[C@H]2[C@@H]3CC=C4C[C@@H](O)CC[C@]4(C)[C@H]3CC[C@]12C [CHOLESTEROL]
[1]
  MAXIMAL INHIBITION: 0
[1]; +5 μM GABA
  +5 μM GABA IC50: INACTIVE
[1]; no added GABA (control)
  CONTROL IC50: INACTIVE

## O=C1CN=C(c2ccccc2Cl)c2cc([N+](=O)[O-])ccc2N1 [Clonazepam]
[2]; Swinyard & Woodhead
  BIC (bicuculline) ED50: 0.0086
[3]; Swinyard & Woodhead
  PICRO (picrotoxin) ED50: 0.043
[4]; Swinyard & Woodhead
  MTZ (metrazol) ED50: 0.009
Mice [5]
  LD50: > 6000
[6]
  MES (maximal electroshock) ED50: 93
Mice [7]
  Rotorod (RR) ED50: 0.184
[8]; Swinyard & Woodhead
  STR (strychnine) ED50: NP

## NCCCC(=O)O [GABA, gamma-aminobutyric acid]
[1]; (+)-bicuculline 0.5-3.0 micromolar, FIGS. 1A and 1B
  shift in dose-response curve for [35S]TBPS binding induced by (+)-bicuculline: classical parallel shift

## CCCC(C)C1(CC)C(=O)NC(=O)NC1=O (stereo not drawn) [Na pentobarbital]
[9]; (**P < 0.01 vs control), alphaxalone 300 nM, 3a-OH-DHP 20 nM
  Total percentage of specific sites, rapidly dissociating (R): 48 ± 6 percentage
[9]; (*P < 0.05 vs control), alphaxalone 300 nM, 3a-OH-DHP 20 nM
  Total percentage of specific sites, slowly dissociating (S): 61 ± 6 percentage
[9]; [35S]TBPS dissociation, alphaxalone 300 nM, 3a-OH-DHP 20 nM
  k-1, rapidly dissociating component (R): 0.158 min⁻¹
[9]; [35S]TBPS dissociation, pentobarbital 30 nM [sic], alphaxalone 300 nM, 3a-OH-DHP 20 nM
  k-1, slowly dissociating component (S): 0.0186 min⁻¹
[9]; pentobarbital 30 micromolar, alphaxalone 300 nanomolar, 5-alpha-pregnan-3-alpha-hydroxy-20-one 20 nanomolar
  effect on dissociation mechanism/kinetics of [35S]TBPS (in words): induces a biphasic dissociation mechanism

## CC(=O)[C@H]1CC[C@H]2[C@@H]3CCC4=CC(=O)CC[C@]4(C)[C@H]3CC[C@]12C [PROGESTERONE]
[10]; Maddocks et al.
  dose-response relationship in the treatment of PMS: no dose-response relationship exists
[10]; literature
  clinical effectiveness in PMS, PND, catamenial epilepsy: not consistently effective
[1]
  MAXIMAL INHIBITION: 100
[1]; in vitro
  potency/efficacy/affinity at the GBR complex (in words): very low potency
[1]; [12]
  IC50: > 100 µM

## CCC1(c2ccccc2)C(=O)NC(=O)NC1=O [Phenobarbital]
[2]; Swinyard & Woodhead
  BIC (bicuculline) ED50: 38
[3]; Swinyard & Woodhead
  PICRO (picrotoxin) ED50: 28
[4]; Swinyard & Woodhead
  MTZ (metrazol) ED50: 13
Mice [5]
  LD50: 265
[6]
  MES (maximal electroshock) ED50: 22
Mice [7]
  Rotorod (RR) ED50: 69
[8]; Swinyard & Woodhead
  STR (strychnine) ED50: 95

## O=C1NC(=O)C(c2ccccc2)(c2ccccc2)N1 [Phenytoin]
[2]; Swinyard & Woodhead
  BIC (bicuculline) ED50: NP
[3]; Swinyard & Woodhead
  PICRO (picrotoxin) ED50: NP
[4]; Swinyard & Woodhead
  MTZ (metrazol) ED50: NP
Mice [5]
  LD50: 230
[8]; at 55-100 mg/kg
  Maximum protection (strychnine): 50%

## NC(=O)CCC/N=C(\c1ccc(Cl)cc1)c1cc(F)ccc1O [Progabide]
[2]; [13]
  BIC (bicuculline) ED50: 30
[3]; [13]
  PICRO (picrotoxin) ED50: 105
[4]; [13]
  MTZ (metrazol) ED50: 30
Mice [5]
  LD50: 3000
[6]
  MES (maximal electroshock) ED50: 75
[8]; [13]
  STR (strychnine) ED50: 75

## CCCC(CCC)C(=O)O [Valproate]
[2]; Swinyard & Woodhead
  BIC (bicuculline) ED50: 360
[3]; Swinyard & Woodhead
  PICRO (picrotoxin) ED50: 387
[4]; Swinyard & Woodhead
  MTZ (metrazol) ED50: 149
Mice [5]
  LD50: 1105
[6]
  MES (maximal electroshock) ED50: 272
[8]; Swinyard & Woodhead
  STR (strychnine) ED50: 293
